Laboratory results: ChEMBL document CHEMBL1201862, “PubChem BioAssay data set” (2004)
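1) Cells in 96-well plates. 2) Compound, 48 h, 5 concentrations. 3) Linear interpolation between surrounding doses. 4) Unreached endpoint = highest concentration. Abbreviation: GI50, concentration required for 50% inhibition of growth.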 Calls of active or inactive are those of the source. Rule as the data show it: active = GI50 up to about 1.1 µM and inactive = higher.

Columns and labels:
Assay in all cases: DTP human tumour cell line panel, 48 h
M14 = tested on: M14
CAKI-1 = tested on: CAKI-1
NCI-H460 = tested on: NCI-H460
HL-60 = tested on: HL-60
NCI-H226 = tested on: NCI-H226
SF-295 = tested on: SF-295
MOLT-4 = tested on: MOLT-4
A498 = tested on: A498
UO-31 = tested on: UO-31
KM12 = tested on: KM12
HCT-15 = tested on: HCT-15
SK-MEL-5 = tested on: SK-MEL-5
UACC-62 = tested on: UACC-62
OVCAR-5 = tested on: OVCAR-5
UACC-257 = tested on: UACC-257
K562 = tested on: K562
HOP-92 = tested on: HOP-92
NCI-H522 = tested on: NCI-H522

Compound | GI50 (M14) | GI50 (CAKI-1) | GI50 (NCI-H460) | GI50 (HL-60) | GI50 (NCI-H226) | GI50 (SF-295) | GI50 (MOLT-4) | GI50 (A498) | GI50 (UO-31) | GI50 (KM12) | GI50 (HCT-15) | GI50 (SK-MEL-5) | GI50 (UACC-62) | GI50 (OVCAR-5) | GI50 (UACC-257) | GI50 (K562) | GI50 (HOP-92) | GI50 (NCI-H522)
O=C1CC(c2c[nH]c3ccccc23)C(=O)N1 (stereo not given) | > 100 µM (inactive) | > 100 µM (inactive) | > 100 µM (inactive) | > 100 µM (inactive) | > 100 µM (inactive) | > 100 µM (inactive) | > 100 µM (inactive) | > 100 µM (inactive) | > 100 µM (inactive) | > 100 µM (inactive) | > 100 µM | > 100 µM (inactive) | > 100 µM (inactive) | > 100 µM (inactive) | > 100 µM (inactive) | > 100 µM (inactive) | – | –
C/C(CCn1[nH]c(=O)ccc1=O)=N\O | > 100 µM (inactive) | > 100 µM (inactive) | > 100 µM (inactive) | > 100 µM (inactive) | > 100 µM (inactive) | > 100 µM (inactive) | > 100 µM (inactive) | > 100 µM (inactive) | > 100 µM (inactive) | > 100 µM (inactive) | > 100 µM | > 100 µM (inactive) | > 100 µM (inactive) | > 100 µM (inactive) | > 100 µM (inactive) | > 100 µM (inactive) | > 100 µM (inactive) | –
COc1cccc2cc(C)c(C(=O)c3ccccc3)nc12 | > 100 µM (inactive) | > 100 µM (inactive) | – | – | > 100 µM (inactive) | > 100 µM (inactive) | > 100 µM (inactive) | – | > 100 µM (inactive) | > 100 µM (inactive) | > 100 µM | > 100 µM (inactive) | > 100 µM (inactive) | > 100 µM (inactive) | 82.2 µM (inactive) | > 100 µM (inactive) | – | > 100 µM (inactive)
COc1ccc(NC(=O)CC/C(CC(=O)c2ccco2)=N/NC(=O)C(N)=O)cc1 | > 100 µM (inactive) | > 100 µM (inactive) | > 100 µM (inactive) | 36 µM (inactive) | > 100 µM (inactive) | > 100 µM (inactive) | 46.9 µM (inactive) | 76.4 µM (inactive) | > 100 µM (inactive) | > 100 µM (inactive) | > 100 µM | 27.4 µM (inactive) | > 100 µM (inactive) | > 100 µM (inactive) | 54.5 µM (inactive) | 28.1 µM (inactive) | – | 53 µM (inactive)
COC(=O)c1cc(=O)nc2cc3cccccc3n12 | > 100 µM (inactive) | – | 59 µM (inactive) | > 100 µM (inactive) | > 100 µM (inactive) | > 100 µM (inactive) | > 100 µM (inactive) | > 100 µM (inactive) | > 100 µM (inactive) | > 100 µM (inactive) | > 100 µM | > 100 µM (inactive) | > 100 µM (inactive) | > 100 µM (inactive) | > 100 µM (inactive) | > 100 µM (inactive) | – | > 100 µM (inactive)
Cc1cc(C)nc(NS(=O)(=O)c2ccc(Nc3c4ccccc4nc4c(C(=O)NCCN(C)C)ccc(Cl)c34)cc2)n1 | 2.9 µM (inactive) | – | 0.39 µM (active) | 1.44 µM (inactive) | 0.7 µM (active) | 1.45 µM (inactive) | 0.255 µM (active) | – | 1.71 µM (inactive) | 1.7 µM (inactive) | 2.78 µM | 4.38 µM (inactive) | 1.74 µM (inactive) | 4.7 µM (inactive) | – | 1.14 µM (inactive) | – | 1.24 µM (inactive)
COc1c(C)cc2c(c1O)C1C3[C@H]4SC[C@@]5(NCCC6=C5NC5C=CC=CC65)C(=O)OCC(c5c6c(c(C)c(OC(C)=O)c54)OCO6)N3[C@@H](O)C(C2)N1C (stereo not given in full) | < 0.01 µM (active) | – | < 0.01 µM (active) | < 0.01 µM (active) | 0.0112 µM (active) | < 0.01 µM (active) | < 0.01 µM (active) | < 0.01 µM (active) | < 0.01 µM (active) | – | < 0.01 µM | < 0.01 µM (active) | < 0.01 µM (active) | – | < 0.01 µM (active) | < 0.01 µM (active) | – | –
NC(CSSCC(N)Cc1ccccc1)Cc1ccccc1 (stereo not given) | 26.4 µM (inactive) | – | 40.8 µM (inactive) | 32.7 µM (inactive) | – | 41.5 µM (inactive) | 30.1 µM (inactive) | > 100 µM (inactive) | > 100 µM (inactive) | 30.2 µM (inactive) | 66.7 µM | 24 µM (inactive) | 23.1 µM (inactive) | 44.3 µM (inactive) | 47.8 µM (inactive) | 33.4 µM (inactive) | – | 15.7 µM (inactive)
CCOC1=NC(=O)CC(c2ccccc2)S1 (stereo not given) | 68.1 µM (inactive) | > 100 µM (inactive) | > 100 µM (inactive) | > 100 µM (inactive) | 27.8 µM (inactive) | > 100 µM (inactive) | > 100 µM (inactive) | > 100 µM (inactive) | > 100 µM (inactive) | > 100 µM (inactive) | > 100 µM | > 100 µM (inactive) | > 100 µM (inactive) | > 100 µM (inactive) | > 100 µM (inactive) | > 100 µM (inactive) | > 100 µM (inactive) | –
O=C(NO)C12C3C4C1C1C2C3C41C(=O)NO (stereo not given) | > 100 µM (inactive) | > 100 µM (inactive) | > 100 µM (inactive) | > 100 µM (inactive) | > 100 µM (inactive) | > 100 µM (inactive) | > 100 µM (inactive) | > 100 µM (inactive) | > 100 µM (inactive) | > 100 µM (inactive) | > 100 µM | > 100 µM (inactive) | > 100 µM (inactive) | > 100 µM (inactive) | – | > 100 µM (inactive) | – | > 100 µM (inactive)
COCN1COCN(C)C1=O | > 100 µM (inactive) | > 100 µM (inactive) | > 100 µM (inactive) | – | > 100 µM (inactive) | > 100 µM (inactive) | – | > 100 µM (inactive) | > 100 µM (inactive) | > 100 µM (inactive) | > 100 µM | > 100 µM (inactive) | > 100 µM (inactive) | > 100 µM (inactive) | > 100 µM (inactive) | > 100 µM (inactive) | > 100 µM (inactive) | –
C[C@@H](NC1CCC[C@@H]1O)c1ccccc1 (stereo not given in full) | > 100 µM (inactive) | > 100 µM (inactive) | > 100 µM (inactive) | > 100 µM (inactive) | > 100 µM (inactive) | > 100 µM (inactive) | > 100 µM (inactive) | – | > 100 µM (inactive) | > 100 µM (inactive) | > 100 µM | > 100 µM (inactive) | > 100 µM (inactive) | > 100 µM (inactive) | > 100 µM (inactive) | > 100 µM (inactive) | > 100 µM (inactive) | –
Cc1cn(C2CC(N(O)Cc3ccccc3)C(CO)O2)c(=O)[nH]c1=O (stereo not given) | > 100 µM (inactive) | – | > 100 µM (inactive) | > 100 µM (inactive) | > 100 µM (inactive) | > 100 µM (inactive) | > 100 µM (inactive) | – | > 100 µM (inactive) | > 100 µM (inactive) | > 100 µM | > 100 µM (inactive) | > 100 µM (inactive) | > 100 µM (inactive) | > 100 µM (inactive) | > 100 µM (inactive) | – | –
